Data taken from PubChem BioAssay AID651569 (Sanford-Burnham Center for Chemical Genomics, 2012).
Active and inactive are the calls of the source. The rule behind the calls is not given here.

These compounds were tested on luminescent cytotoxicity (cell viability) counter-screen (assay: cytotoxicity of Gli-SUFU antagonist hits, dose response, cytotoxicity control for Gli-SUFU antagonist project, cell-based, luminescence, uHTS hits (AID 651569);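 note: compound exposure lasted overnight before the viability readout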).
`Cc1ccc(C2=C(CC(=O)O)C(=O)CC2)cc1` was tested, and the IC50 was > 20 µM (inactive). `Clc1ccc(-n2cc(-c3ccc(Br)cc3)[n+]3c2CCCCC3)cc1` was tested, and the IC50 was > 20 µM (inactive). `c1ccc(-c2c[n+]3c(n2-c2ccccc2)SCC3)cc1` was tested, and the IC50 was > 20 µM (inactive). `CCN(CC(=O)Nc1c(F)cccc1F)C(=O)c1cc(S(=O)(=O)N(CC)CC)ccc1N1CCCCC1` gave an IC50 of 9.1 µM. For `CC1CN(S(=O)(=O)c2ccc(C(=O)Nc3nc(-c4cc5ccccc5o4)cs3)cc2)CC(C)O1` (stereo not drawn), the IC50 was > 20 µM (inactive). For `O=C(N[C@@H]1C/C=C\C[C@@H](CC(=O)N(CCO)Cc2ccccc2)C(=O)NC[C@H](c2ccccc2)OC1=O)OCC1c2ccccc2-c2ccccc21`, the IC50 was > 20 µM (inactive). In the case of `Cc1ncoc1C(=O)NC1CCCc2c1cnn2-c1ccc(C(C)(C)C)cc1` (stereo not drawn), the IC50 is reported as > 20 µM (inactive). For `CCN(CC)C(=O)c1ccc(S(=O)(=O)N2CCC(c3nc4ccccc4s3)CC2)cc1`, the IC50 was > 20 µM (inactive). `Cc1sc2ncnc(N3CCN(S(=O)(=O)c4ccc(C(C)(C)C)cc4)CC3)c2c1C` was tested, and the IC50 was > 20 µM (inactive). `CC(NC(=O)c1cc2c(=O)n3ccccc3nc2n(CC2CCCO2)c1=N)c1ccccc1` (stereo not drawn) was tested, and the IC50 was > 20 µM (inactive). With `CCCCOc1ncnc2c1[nH]c1ccc(F)cc12` the IC50 was > 20 µM (inactive). For `C/C(=N\Nc1ccc(Cl)nn1)c1ccccc1O`, the IC50 was > 20 µM (inactive). Compound `COc1cc2c(c(OC)c1OC)-c1ccc(N(C)CC(OC)OC)c(=O)cc1[C@@H](NC(C)=O)CC2` has an IC50 of 10.6 µM. With `O=C(c1cnc(N2CCN(c3ccccn3)CC2)c2ccccc12)N1CCN(c2cccc(Cl)c2)CC1` the IC50 was > 20 µM (inactive). For `Cc1sc2ncnc(NCC(C)(C)N3CCOCC3)c2c1C`, the IC50 was > 20 µM (inactive). `C=CCOc1nc2c(c(=O)n(C)c(=O)n2C)n1Cc1ccc(Cl)cc1` was tested, and the IC50 was > 20 µM (inactive). `CC1CCN(c2c(NCc3ccc(C(=O)N4c5ccccc5CC4C)cc3)c(=O)c2=O)CC1` (stereo not drawn) was tested, and the IC50 was > 20 µM (inactive). For `O=S(=O)(c1ccc2c(c1)nc(COc1ccc(Cl)cc1)n2CC1CCCO1)N1CCOCC1` (stereo not drawn), the IC50 was > 20 µM (inactive). For `COc1ccccc1-n1c(-c2ccccc2)c[n+]2c1CCc1ccccc1-2`, the IC50 was > 20 µM (inactive). `CCOC(=O)N1CCN(C(=O)c2cc(COc3ccc4ncccc4c3)on2)CC1` was tested, and the IC50 was > 20 µM (inactive). With `CCOc1ccc(S(=O)(=O)NCc2ccncc2)cc1NC(=O)c1ccccc1` the IC50 was > 20 µM (inactive). With `Cn1c(=O)c2c(nc(NCc3ccco3)n2Cc2ccc(Cl)cc2Cl)n(C)c1=O` the IC50 was > 20 µM (inactive). `CCOc1ccc(OCc2ccc(C(=O)NN=Cc3ccc[nH]3)cc2)cc1` was tested, and the IC50 was 19.3 µM. For `COc1ccc(CNc2cc(C)nc3ncnn23)c(OC)c1`, the IC50 was > 20 µM (inactive). In the case of `Cc1cc(/C=N/n2cnnc2)c(C)n1-c1ccc(OCc2ccccc2F)cc1`, the IC50 is reported as 16.3 µM. With `COc1cc(C(=O)NC2CCN(C)CC2)ccc1Nc1ncc2c(n1)N(CCc1ccccc1)CCC(=O)N2C` the IC50 was > 20 µM (inactive). With `Cc1ccc(OCCOC(=O)c2cc(S(=O)(=O)N3CCCCC3)ccc2N2CCOCC2)cc1` the IC50 was > 20 µM (inactive). `Cc1ccc(NC(=O)COc2ccccc2C(N)=O)cc1S(=O)(=O)N1CCCCCC1` showed an IC50 of 19.8 µM. With `COc1ccc(NS(=O)(=O)c2cccc(NC(=O)c3ccc(S(=O)(=O)N4CCCCCC4)cc3)c2)cc1` the IC50 was > 20 µM (inactive). With `CC(CC(=O)N1CCN(c2cccc(Cl)c2)CC1)S(=O)(=O)c1ccc2c(c1)NC(=O)CO2` (stereo not drawn) the IC50 was > 20 µM (inactive). With `O=C(c1cc2sccc2n1Cc1ccccc1)N1CCN(c2nc3ccccc3s2)CC1` the IC50 was > 20 µM (inactive). With `Cc1cc(C)c(C)c(S(=O)(=O)N2CCN(c3ncnc4ccccc34)CC2)c1C` the IC50 was > 20 µM (inactive). `CCc1cc(C(=O)NC2CCCN(Cc3ccccc3F)C2)n(C)n1` (stereo not drawn) was tested, and the IC50 was > 20 µM (inactive). `Cc1c(CCOC(=O)C23CC4CC(CC(C)(C4)C2)C3)sc[n+]1Cc1ccccc1` was tested, and the IC50 was > 20 µM (inactive). With `CN1/C(=C\C=N\NC(=O)c2ccc(O)cc2)C(C)(C)c2ccccc21` the IC50 was 4.84 µM. In the case of `CCN(CC)S(=O)(=O)c1ccc(S(=O)(=O)N2CCCC(C(=O)NC3CC3)C2)cc1` (stereo not drawn), the IC50 is reported as > 20 µM (inactive). In the case of `Brc1ccc(-c2c[n+]3c(n2-c2ccccc2)SCC3)cc1`, the IC50 is reported as > 20 µM (inactive). For `CNc1ccccc1C(C)(C)c1cc(-c2cccc(Br)c2)no1`, the IC50 was > 20 µM (inactive). For `Cc1ccc(S(=O)(=O)N2CCN(C(=O)c3ccc(S(=O)(=O)N4CCCC4)cc3)CC2)cc1`, the IC50 was > 20 µM (inactive). `Cc1c(C(C)C)c(=O)n(-c2ccc(S(=O)(=O)NCc3ccccc3)cc2)n1C` was tested, and the IC50 was > 20 µM (inactive). For `CCOc1ccc(NC(=S)NNc2ccnc3cc(Cl)ccc23)cc1`, the IC50 was > 20 µM (inactive). With `C/C(=N\NC(=O)C(=O)Nc1ccc(C)c(Cl)c1)c1ccncc1` the IC50 was > 20 µM (inactive). For `CCn1c(=NC(=O)CS(=O)(=O)c2ccccc2)sc2cccc(OC)c21`, the IC50 was > 20 µM (inactive). `Cc1cc(N/N=C/c2ccc(O)cc2O)nc(-n2nc(C)cc2C)n1` was tested, and the IC50 was > 20 µM (inactive). With `O=C(Nc1ccncc1)c1ccc(-c2ccccc2)cc1` the IC50 was > 20 µM (inactive). `CCCCN(C(C)=O)c1ccc2c(c1)C1CC2CCN1C(=O)OCc1ccccc1` (stereo not drawn) was tested, and the IC50 was 8.16 µM. In the case of `O=C(NCCc1cccc(Cl)c1)c1ccc(OC2CCN(Cc3ccccn3)CC2)cc1`, the IC50 is reported as > 20 µM (inactive). With `CCCCOC(=O)c1[nH]c2c(c1C)C(=O)CC(c1cc(OC)c(OC)c(OC)c1)C2` (stereo not drawn) the IC50 was > 20 µM (inactive). With `COc1cccc(CN(C)C(=O)c2cc(COc3ccc4ncccc4c3)on2)c1` the IC50 was > 20 µM (inactive). With `CC1=CC(C)C2(COC(c3ccc[n+](C)c3)OC2)C(C)C1` (stereo not drawn) the IC50 was > 20 µM (inactive). With `COc1ccc(CN(C)C(=O)c2cccc(NC(=O)CC3SC(N4CCCCC4)=NC3=O)c2)c(OC)c1` (stereo not drawn) the IC50 was > 20 µM (inactive). In the case of `Cc1ccc(NCC(=O)Nc2cccc(S(=O)(=O)N(C)C)c2)cc1S(=O)(=O)N1CCCCCC1`, the IC50 is reported as > 20 µM (inactive). In the case of `COc1ccc(-c2c[n+](CC(=O)c3ccccc3)c3n2CCCCC3)cc1`, the IC50 is reported as > 20 µM (inactive). For `CC(C)(C)C1CCC(OC(=O)C[N+]2(C)CCCCC2)CC1` (stereo not drawn), the IC50 was > 20 µM (inactive). With `c1ccc2c(c1)OCC(CNc1ncnc3sccc13)O2` (stereo not drawn) the IC50 was > 20 µM (inactive). In the case of `CCCCn1c(SCc2c(C)noc2C)nc2cc(S(N)(=O)=O)ccc21`, the IC50 is reported as > 20 µM (inactive). `COc1ccc(Nc2nc(N3CCOCC3)nc(N3CCOCC3)n2)c(OC)c1` was tested, and the IC50 was > 20 µM (inactive). For `O=C(Cc1csc(Nc2nc(=S)[nH]c3ccccc23)n1)NCCCN1CCN(c2ccccc2F)CC1`, the IC50 was > 20 µM (inactive). In the case of `CCC(=O)c1ccc(OCC(O)Cn2c(C)nc3ccccc32)cc1` (stereo not drawn), the IC50 is reported as > 20 µM (inactive). `CCn1c(=NC(=O)CCS(=O)(=O)c2ccccc2)sc2cccc(OC)c21` was tested, and the IC50 was > 20 µM (inactive). Work on `Cc1cccc(CCN2C(N(C)C)=NC[C@@H]2CC(C)C)c1` yielded an IC50 of 18.2 µM. In the case of `CC(C)(C)OC(=O)NCCCCCc1cn(CC(=O)NCCCCCCCCCCC(=O)N2CCN(C(=O)OC(C)(C)C)CC2)nn1`, the IC50 is reported as > 20 µM (inactive). With `CC(=O)c1c(C)[nH]c(C(=O)OCC(=O)Nc2sc3c(c2C#N)CCCC3)c1C` the IC50 was > 20 µM (inactive). For `Cc1nc2cc(N3CCN(C)CC3)c(NC(=O)Cc3ccccc3)cc2c(=O)n1Cc1ccccc1`, the IC50 was > 20 µM (inactive). For `COc1ccc(CC(=O)Nc2cccc(S(=O)(=O)N3CCCCCC3)c2)cc1OC`, the IC50 was > 20 µM (inactive). With `Nc1ccc(Br)cc1-c1nc2ccccc2[nH]c1=O` the IC50 was > 20 µM (inactive). Work on `CC(Sc1nc2ccccc2c(=O)n1C)C(=O)NC1CCCCC1C` (stereo not drawn) yielded an IC50 of 16.7 µM. `COCCNC(=O)CSCc1nc(-c2ccc(SC)cc2)oc1C` was tested, and the IC50 was > 20 µM (inactive). With `COC(=O)C1=C(c2cc3ccccc3o2)C[C@@H]2CC[C@H]1N2C(=O)N1CCC(C)CC1` the IC50 was > 20 µM (inactive). In the case of `O=C(C[C@H]1C/C=C\C[C@H](NC(=O)OCC2c3ccccc3-c3ccccc32)C(=O)OC[C@@H]2CCCN2C1=O)N[C@H](CO)Cc1ccccc1`, the IC50 is reported as > 20 µM (inactive). Work on `COc1cccc2nc3c(C(=O)NCCN(C)C)cccc3cc12` yielded an IC50 of 10.6 µM. For `O=C(Nc1cc(N2CCCCC2)ncn1)c1ccccc1`, the IC50 was > 20 µM (inactive). In the case of `CCOC(=O)C1CCCN(S(=O)(=O)c2ccc(S(=O)(=O)N(CC)CC)cc2)C1` (stereo not drawn), the IC50 is reported as > 20 µM (inactive). `CCCC(C)C(=O)Nc1nc(C)c(-c2csc(Nc3ccc(Cl)cc3)n2)s1` (stereo not drawn) was tested, and the IC50 was > 20 µM (inactive). For `Cc1nc2ccccc2n1CC(=O)NC(C)C1CC2CCC1C2` (stereo not drawn), the IC50 was > 20 µM (inactive). In the case of `O=C(Nc1cccc(C(F)(F)F)c1)C1CCN(S(=O)(=O)c2ccc(N3CCCC3=O)cc2)CC1`, the IC50 is reported as > 20 µM (inactive). In the case of `Cc1ccc(S(=O)(=O)NCCC2=CCCCC2)cc1C(N)=O`, the IC50 is reported as > 20 µM (inactive). With `CCn1c(C)nc2cc(-c3nnc(-c4c(-c5ccccc5)noc4C)o3)ccc21` the IC50 was > 20 µM (inactive). For `CC[N+]1=C(C)C(C)(C)c2cc(C)ccc21`, the IC50 was > 20 µM (inactive). In the case of `COc1ccc(NS(=O)(=O)c2ccc(N3CCOCC3)c(N)c2)cc1`, the IC50 is reported as > 20 µM (inactive). For `Cc1cc(/C=C2/SC(=S)N(c3ccc([N+](=O)[O-])cc3)C2=O)c(C)n1-c1cccnc1`, the IC50 was > 20 µM (inactive). In the case of `CN(Cc1nccs1)C(=O)c1cc(COc2cccc3cnccc23)on1`, the IC50 is reported as > 20 µM (inactive). For `Cn1c(=O)c2c(nc(NCCOc3ccc(C(C)(C)C)cc3)n2C)n(C)c1=O`, the IC50 was > 20 µM (inactive). For `CCC(CC)CN1C(N(C)C)=NC[C@@H]1CC(C)C`, the IC50 was > 20 µM (inactive). For `C[C@@H]1COC(=O)[C@@H](NC(=O)OCC2c3ccccc3-c3ccccc32)C/C=C\C[C@@H](CC(=O)N(CCO)Cc2ccccc2)C(=O)N1`, the IC50 was > 20 µM (inactive). In the case of `CCCCCn1c(=N)n(CC(O)COc2ccccc2OC)c2ccccc21` (stereo not drawn), the IC50 is reported as > 20 µM (inactive). Compound `O=c1c2ccccc2sc2c(CO)ccc(NCCN3CCCCC3)c12` has an IC50 of 19.1 µM. For `CCCCc1ccc(NC(=O)C(=O)NCCN2CCN(Cc3ccc([N+](=O)[O-])cc3)CC2)cc1`, the IC50 was > 20 µM (inactive). `Brc1ccc(-c2csc(N3CCCCCC3)n2)cc1` was tested, and the IC50 was > 20 µM (inactive). `CCCCCCCOc1ccc(OC(=O)c2cccnc2)cc1` was tested, and the IC50 was > 20 µM (inactive). With `COCCNc1nc2c(c(=O)n(C)c(=O)n2C)n1Cc1cccc(C(F)(F)F)c1` the IC50 was 12.4 µM. In the case of `Nc1nc2ccccc2n1/N=C/c1ccc([N+](=O)[O-])s1`, the IC50 is reported as > 20 µM (inactive). `O=C(C1CCCCC1)N1CCN(c2ccnc3cc(Cl)ccc23)CC1` was tested, and the IC50 was > 20 µM (inactive).
